Measurements as given in patent US7727998B2, “Melanin-concentrating hormone receptor antagonists containing piperidine derivatives as the active ingredient” (Banyu Pharmaceutical Co., Ltd., priority 2003, dated 2010).

These compounds were tested against T1, human MCH-1R (Homo sapiens, UniProt Q99705) (assay: MCH binding inhibition test). Settings: not given.
T1 construct: expressed in transfected cells; host or cells: CHO-K1 (American Type Culture Collection), membrane samples
Source text: Pharmacological Test Example 1
(MCH Binding Inhibition Test)
A human MCH-1R encoding cDNA sequence [FEBS Letters, Vol. 398, p. 253 (1996); Biochimica et Biophisica Acta, Vol. 1401, p. 216 (1998)] was cloned to plasmid vector pEF/mic/cyto (Invitrogen Corporation). The obtained expression vector was transfected to a host cell CHO-K1 (American Type Culture Collection) using lipofectamine plus reagent (Life Technology Inc.) to provide MCH-1R expression cells.
Membrane samples prepared from the MCH-1R expression cells were incubated with each test compound and 50 pM of [^125I]MCH (NEN Co.), in an assay buffer (50 mM Tris buffer comprising 10 mM magnesium chloride, 2 mM ethylenediamine tetraacetate, 0.01% bacitracin and 0.2% bovine serum albumin; pH 7.4) at 25° C. for an hour, followed by filtration through Glass Filter GF/C (Wattman Co.). After washing the glass filter with 50 mM Tris buffer (pH7.4) comprising 10 mM magnesium chloride, 2 mM ethylenediamine tetraacetate and 0.04% Tween-20, radiative activity on the glass filter was measured. Non-specific binding was measured in the presence of 1 μM human MCH and 50% inhibition concentration (IC50 value) of each test compound to specific [^125] MCH binding was determined.

T1 sequence (Q99705 whole entry): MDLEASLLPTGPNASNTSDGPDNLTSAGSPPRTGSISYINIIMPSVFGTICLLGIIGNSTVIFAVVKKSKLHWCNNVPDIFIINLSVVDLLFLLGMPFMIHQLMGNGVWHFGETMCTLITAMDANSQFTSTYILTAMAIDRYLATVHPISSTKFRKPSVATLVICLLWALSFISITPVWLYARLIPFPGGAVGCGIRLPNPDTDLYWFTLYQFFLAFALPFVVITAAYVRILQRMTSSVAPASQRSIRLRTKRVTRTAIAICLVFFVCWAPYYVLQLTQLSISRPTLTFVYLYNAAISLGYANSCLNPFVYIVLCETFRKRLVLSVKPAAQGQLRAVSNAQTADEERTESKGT

Going from `O=C(NCCCN1CCC2(CC1)OCc1cc(F)ccc12)C(c1ccc(F)c(F)c1)N1CCCC1=O` (stereo not drawn) [Example 6, 2-(3,4-Difluorophenyl)-2-(2-oxo-1-pyrrolidinyl)-N-[3-(spiro[5-fluoroisobenzofuran-1(3H), 4′-piperidin]-1-yl)propyl]-acetamide] to `CN(CCCN1CCC2(CC1)OCc1cc(F)ccc12)C(=O)C(c1ccc(F)c(F)c1)N1CCCC1=O` (stereo not drawn) [Example 33, 2-(3,4-Difluorophenyl)-N-methyl-2-(2-oxo-1-pyrrolidinyl-N-[3-spiro[5-fluoroisobenzofuran-1(3H), 4′-piperidin]-1-yl)-propyl]acetamide], the IC50 falls from 5 nM to 1.4 nM (3.6-fold).

First: CN(CCCN1CCC2(CC1)OCc1ccccc12)C(=O)C(c1ccc(F)c(F)c1)n1ncnn1 (stereo not drawn) [Example 28, 2-(3,4-Difluorophenyl)-N-methyl-2-(2H-1,2,3,4-tetrazol-2-yl)-N-[3-(spiro[isobenzofuran-1(3H), 4′-piperidin]-1-yl)propyl]acetamide]
Second: Cc1nccn1C(C(=O)N(C)CCCN1CCC2(CC1)OCc1ccc(F)cc12)c1ccc(F)c(F)c1 (stereo not drawn) [Example 43, 2-(3,4-Difluorophenyl)-N-methyl-2-(2-methyl-1H-imidazol-1-yl)-N-[3-(spiro[6-fluoroisobenzofuran-1(3H), 4′-piperidin]-1-yl)-propyl]acetamide]
The IC50 of the first is 9.5-fold higher: 1.9 nM for the first, 0.2 nM for the second. The second is the more potent here.

`CN(CCCN1CCC2(CC1)OCc1cc(F)ncc12)C(=O)C(c1ccc(F)nc1)c1ccc(F)nc1` [Example 48, 2,2-Bis(6-fluoro-3-pyridinyl)-N-methyl-N-[3-(spiro[5-fluoro-6-azaisobenzofuran-1(3H), 4′-piperidin]-1-yl)propyl]-acetamide] gave an IC50 of 6.5 nM.

Same assay, conditions: inhibition of specific [125I]MCH (50 pM) binding; membranes of MCH-1R expressing CHO-K1 cells; 25° C., one hour, pH 7.4; read-out: IC50

Compared with `CN(CCCN1CCC2(CC1)OCc1ccccc12)C(=O)C(c1ccc(Cl)cc1)n1cccc1` (stereo not drawn) [Example 12, 2-(4-Chlorophenyl)-N-methyl-2-(1H-pyrrol-1-yl)-N-[3-(spiro-[isobenzofuran-1(3H), 4′-piperidin]-1-yl)propyl]acetamide], `CN(CCCN1CCC2(CC1)OCc1ccccc12)C(=O)C(c1ccc(F)c(F)c1)n1ccnn1` (stereo not drawn) [Example 18, 2-(3,4-Difluorophenyl)-N-methyl-2-(1H-1,2,3-triazol-1-yl)-N-[3-(spiro[isobenzofuran-1(3H), 4′-piperidin]-1-yl)propyl]acetamide] is 1.9-fold higher in IC50: 1 nM for the first, 1.9 nM for the second. The first is the more potent here.

Going from `CCC(=O)Nc1cccc(C2CCN(CCCN(C)C(=O)C(C)(C)c3ccc(F)c(F)c3)CC2)c1` [Example 60, 2-(3,4-Difluorophenyl)-2,2-dimethyl-N-methyl-N-[3-(4-(3-(propionylamino)phenyl)-1-piperidinyl)propyl]acetamide] to `CCN(CCCN1CCC2(CC1)OCc1ccccc12)C(=O)C(c1ccc(F)c(F)c1)N1CCCC1=O` (stereo not drawn) [Example 67, 2-(3,4-Difluorophenyl)-N-ethyl-2-(2-oxo-1-pyrrolidinyl)-N-[3-(spiro[isobenzofuran-1(3H), 4′-piperidin]-1-yl)propyl]acetamide], the IC50 falls from 2.5 nM to 1 nM (2.5-fold).
